# In ChEMBL document CHEMBL3886504, “Pyridinones/pyrazinones, method of making, and method of use thereof” (2016):
# Molecular target: Tyrosine-protein kinase BTK (Homo sapiens, UniProt Q06187)
# Experiment: Biochemical Btk Assay: A generalized procedure for a standard biochemical Btk Kinase Assay that can be used to test Formula I compounds is as follows. A master mix minus Btk enzyme is prepared containing 1x Cell Signaling kinase buffer (25 mM Tris-HCl, pH 7.5, 5 mM beta-glycerophosphate, 2 mM dithiothreitol, 0.1 mM Na3VO4, 10 mM MgCl2), 0.5 μM Promega PTK Biotinylated peptide substrate 2, and 0.01% BSA. A master mix plus Btk enzyme is prepared containing 1x Cell Signaling kinase buffer, 0.5 μM PTK Biotinylated peptide substrate 2, 0.01% BSA, and 100 ng/well (0.06 mU/well) Btk enzyme. Btk enzyme is prepared as follows: full length human wildtype Btk (accession number NM-000061) with a C-terminal V5 and 6xHis tag was subcloned into pFastBac vector for making baculovirus carrying this epitope-tagged Btk.
# Tyrosine-protein kinase BTK, sequence (Q06187 whole entry): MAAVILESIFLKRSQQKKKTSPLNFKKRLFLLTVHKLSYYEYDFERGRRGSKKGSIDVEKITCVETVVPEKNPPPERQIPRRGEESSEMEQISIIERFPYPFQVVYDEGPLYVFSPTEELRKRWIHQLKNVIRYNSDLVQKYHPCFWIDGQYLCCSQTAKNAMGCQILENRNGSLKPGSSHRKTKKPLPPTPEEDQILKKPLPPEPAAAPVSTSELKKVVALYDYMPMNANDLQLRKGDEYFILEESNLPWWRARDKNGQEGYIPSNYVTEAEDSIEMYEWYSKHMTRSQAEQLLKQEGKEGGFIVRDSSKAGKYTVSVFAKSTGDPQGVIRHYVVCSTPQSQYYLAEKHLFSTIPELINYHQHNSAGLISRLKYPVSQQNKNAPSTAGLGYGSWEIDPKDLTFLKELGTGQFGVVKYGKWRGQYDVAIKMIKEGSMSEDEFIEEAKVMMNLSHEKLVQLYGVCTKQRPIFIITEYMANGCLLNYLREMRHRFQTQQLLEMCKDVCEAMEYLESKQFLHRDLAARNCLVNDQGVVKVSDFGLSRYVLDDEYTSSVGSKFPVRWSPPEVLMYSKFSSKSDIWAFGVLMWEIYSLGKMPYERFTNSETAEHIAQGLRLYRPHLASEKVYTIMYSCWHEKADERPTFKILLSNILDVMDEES
row,SMILES,IC50 [nM]
1,Cc1c(-c2cn(C)c(=O)c(Nc3ccc(C(=O)N4CCOCC4)cc3)n2)cccc1N1Cc2cc(C(C)(C)C)ccc2C1=O,36.4
2,Cc1c(-c2cn(C)c(=O)c(Nc3ccc(C4C(=O)N(C)CCN4C)cc3)n2)cccc1N1Cc2cc(C(C)(C)C)ccc2C1=O (stereo not drawn),29.4
3,Cc1c(-c2cn(C)c(=O)c(Nc3ccc(C4C(=O)N(C)CCN4C)cc3)n2)cccc1N1Cc2cc(N3CCCCC3)ccc2C1=O (stereo not drawn),245
